These results are taken from patent US9060967B2, “Stable aqueous formulation of (E)-4-carboxystyryl-4-chlorobenzyl sulfone” (ONCONOVA THERAPEUTICS, INC, priority 2010, dated 2015).

What all share (format): physicochemical
A short description of data set [1]: octanol:water partition coefficient (preformulation study). As to the method:
(§1) The physio-chemical properties of ON 01210.Na, as an exemplary efficacious radiation protectant drug, were determined in order to evaluate appropriate formulation approaches for development of a safe, reliable and effective parenteral formulation of this compound and other radioprotective α,β-unsaturated arylsulfones. Evaluation studies included microscopic studies, partition coefficient, pKa, pH solubility studies, pH stability studies under accelerated conditions, solid state characterization of the drug substance, and solid state stability of drug substance under accelerated conditions. […] This drug was reasonably stable in an aqueous environment at biological pH. Therefore, it was determined that ON 01210.Na could be formulated as a shelf stable parenteral formulation.

A short description of data set [2]: pH stability studies under accelerated conditions. The procedure: as §1
A short description of data set [3]: accelerated solid-state stability study of the bulk drug substance. The procedure: as §1

For `O=C([O-])c1ccc(/C=C/S(=O)(=O)Cc2ccc(Cl)cc2)cc1.[Na+]` [ON 01210.Na, (E)-4-Carboxystyryl-4-chlorobenzylsulfone, Sodium Salt], the “octanol:water partition coefficient” value in data set [1] is on record as 1.28-2.87. Also, the degradation rate order result in data set [2] was “pseudo-first-order”. In addition, the “pH-stability profile, degradation” value in data set [2] (acidic conditions) is recorded as “rapid”. The pH-stability profile result in data set [2] (neutral and biological pH) was “better stability”. In addition, in data set [3], the accelerated solid-state stability entry is listed as “no evidence of degradation”.
